Measurements taken from patent US9845297B2, “Antimicrobial compounds and methods of making and using the same” (Melinta Therapeutics, Inc., priority 2009, dated 2017).

Test system: Eschericia coli strain ATCC25922
Assay: standard microdilution assay to determine minimum inhibitory concentrations (MICs)
Format: cell-based
Conditions: Escherichia coli, ATCC25922, Eschericia coli strain ATCC25922, standard microdilution assay; read-out: E. coli ATCC25922 MIC
Method in brief: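 Broth microdilution per CLSI protocols, typically 100 µL final volume, against E. coli ATCC25922. MIC values scored as +/− against a cutoff of 16 micrograms/ml.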

| Structure (SMILES) | MIC [µg/mL] |
| --- | --- |
| N=C(N)NCCCN(CCCN)Cc1ccc(-c2c[nH]c(NC(=O)NCCc3ccc(Cl)c(Cl)c3)nc2=O)cc1 [Compound 478] | > 16 |
| NCCCNCc1ccc(-c2c[nH]c(NC(=O)Nc3c(Cl)cccc3Cl)nc2=O)cc1F [Compound 479] | > 16 |
| Cc1ccc(NC(=O)Nc2nc(=O)c(-c3ccc(CNCCCN)c(F)c3)c[nH]2)cc1C(F)(F)F [Compound 481] | > 16 |
| NCCCNCc1ccc(-c2c[nH]c(NC(=O)Nc3cc(N)ccc3Cl)nc2=O)cc1F [Compound 483] | > 16 |
| NCCCNCc1ccc(-c2c[nH]c(NC(=O)Nc3cccc([N+](=O)[O-])c3)nc2=O)cc1F [Compound 485] | > 16 |
| N#Cc1cccc(NC(=O)Nc2nc(=O)c(-c3ccc(CNCCCN)c(F)c3)c[nH]2)c1 [Compound 486] | > 16 |
| NCCCNCc1ccc(-c2c[nH]c(Nc3ccc(C(F)(F)F)cc3)nc2=O)cc1F [Compound 488] | > 16 |
| N=C(N)NCCCN(CCCN)Cc1ccc(-c2c[nH]c(Nc3ccc(C(F)(F)F)cc3)nc2=O)cc1F [Compound 490] | > 16 |
| N=C(N)NCCCN1CCCN(c2c[nH]c(NC(=O)Nc3ccccc3OC(F)(F)F)nc2=O)CC1 [Compound 491] | > 16 |
| NCCCN1CCCN(c2c[nH]c(NC(=O)Nc3ccccc3OC(F)(F)F)nc2=O)CC1 [Compound 492] | > 16 |
| NCCCNCc1ccc(-c2c[nH]c(Nc3nc4ccccc4[nH]3)nc2=O)c(F)c1 [Compound 493] | < 16 |
| Cc1cc([N+](=O)[O-])ccc1NC(=O)Nc1nc(=O)c(-c2ccc(CNCCCN)c(F)c2)c[nH]1 [Compound 495] | > 16 |
| NCCCCCN1CCC(c2c[nH]c(Nc3nc4ccccc4[nH]3)nc2=O)CC1 [Compound 499] | > 16 |
| Cc1cc(CNCCCN)ccc1-c1c[nH]c(NC(=O)Nc2ccccc2OC(F)(F)F)nc1=O [Compound 500] | < 16 |
| N=C(N)NCCCNCc1ccc(-c2c[nH]c(NC(=O)NCCc3ccccc3OC(F)(F)F)nc2=O)cc1F [Compound 513] | > 16 |
| NCCCN1CCCC(c2c[nH]c(NC(=O)Nc3ccccc3OC(F)(F)F)nc2=O)CC1 (stereo not shown) [Compound 516] | > 16 |
| N=C(N)NCCCCCN1CCN(c2c[nH]c(NC(=O)Nc3ccccc3OC(F)(F)F)nc2=O)CC1 [Compound 519] | > 16 |
| NCCCCN1CCN(c2c[nH]c(NC(=O)Nc3cc(F)c(F)cc3F)nc2=O)CC1 [Compound 520] | > 16 |
| NCCCCN1CCCC(c2c[nH]c(NC(=O)Nc3ccccc3OC(F)(F)F)nc2=O)CC1 (stereo not shown) [Compound 524] | > 16 |

| Structure (SMILES) | MIC [µg/mL] |
| --- | --- |
| COc1nc(NC(=O)NCCc2nc3ccccc3o2)ncc1-c1ccc(CNCCCN)c(F)c1 [Compound 526] | > 16 |
| N=C(N)NCCCCN1CCN(c2c[nH]c(Nc3nc4ccccc4[nH]3)nc2=O)CC1 [Compound 531] | > 16 |
| N=C(N)NCCCCN1CCN(c2c[nH]c(NC(=O)Nc3ccccc3OC(F)(F)F)nc2=O)CC1 [Compound 534] | > 16 |
| NCCCCN1CCC(c2c[nH]c(NC(=O)Nc3cc(F)c(F)cc3F)nc2=O)CC1 [Compound 535] | > 16 |
| NCCCCCN1CCC(c2c[nH]c(NC(=O)Nc3cc(F)c(F)cc3F)nc2=O)CC1 [Compound 538] | > 16 |
| N=C(N)NCCCCCN1CCC(c2c[nH]c(NC(=O)Nc3cc(F)c(F)cc3F)nc2=O)CC1 [Compound 545] | > 16 |
| N=C(N)NCCCCN1CCC(c2c[nH]c(NC(=O)Nc3ccccc3OC(F)(F)F)nc2=O)CC1 [Compound 548] | > 16 |
| NCCCCCN1CCC(c2c[nH]c(NC(=O)Nc3cccc(Cl)c3F)nc2=O)CC1 [Compound 549] | > 16 |
| NCCCCCN1CCC(c2c[nH]c(NC(=O)Nc3ccccc3OC(F)(F)F)nc2=O)CC1 [Compound 550] | > 16 |
| NCCCNCc1ccc(-c2c[nH]c(NC(=O)Nc3cc(F)c(F)cc3F)nc2=O)cn1 [Compound 551] | > 16 |
| NCCCNCc1ccc(-c2c[nH]c(NC(=O)Nc3cccc(Cl)c3F)nc2=O)cn1 [Compound 552] | > 16 |
| NCCCNCc1ccc(-c2c[nH]c(NC(=O)Nc3ccccc3OC(F)(F)F)nc2=O)cn1 [Compound 553] | > 16 |
| NCCCNCc1ccc(-c2c[nH]c(NC(=O)NCc3nc4ccccc4[nH]3)nc2=O)cc1F [Compound 556] | > 16 |
| N=C(Nc1ccccc1)Nc1nc(=O)c(-c2ccc(CNCCCN)c(F)c2)c[nH]1 [Compound 573] | > 16 |
| NCCCNCc1ccc(-c2c[nH]c(NC(=O)NCCCc3cc(F)c(F)cc3F)nc2=O)cc1F [Compound 574] | > 16 |
| N=C(N)NCCCCCN1CCC(c2c[nH]c(NC(=O)Nc3cccc(Cl)c3F)nc2=O)CC1 [Compound 583] | > 16 |
| NCCCNCc1ccc(-c2c[nH]c(Nc3nc4ccccc4o3)nc2=O)cc1F [Compound 588] | < 16 |
| N=C(N)NCCCNCc1ccc(-c2c[nH]c(NC(=O)Nc3cccc(Cl)c3F)nc2=O)cn1 [Compound 593] | < 16 |
| N=C(N)NCCCNCc1ccc(-c2c[nH]c(NC(=O)Nc3ccccc3OC(F)(F)F)nc2=O)cn1 [Compound 594] | < 16 |

The remaining lines, values ahead:

| MIC [µg/mL] | Structure (SMILES) |
| --- | --- |
| < 16 | NCCCNCc1ccc(-c2c[nH]c(NC(=O)Nc3cc(Cl)ccc3Cl)nc2=O)cc1F [Compound 480] |
| > 16 | NCCCNCc1ccc(-c2c[nH]c(NC(=O)Nc3cc(F)cc(C(F)(F)F)c3)nc2=O)cc1F [Compound 482] |
| > 16 | N=C(N)NCCCN1CC2(CCN(c3c[nH]c(NC(=O)Nc4ccccc4OC(F)(F)F)nc3=O)CC2)C1 [Compound 484] |
| > 16 | NCCCNCc1ccc(-c2c[nH]c(Nc3ccc(C(F)(F)F)cc3)nc2=O)cc1 [Compound 487] |
| > 16 | NCCCN(CCCN)Cc1ccc(-c2c[nH]c(Nc3ccc(C(F)(F)F)cc3)nc2=O)cc1F [Compound 489] |
| > 16 | NCCCNCc1ccc(-c2c[nH]c(NC(=O)Nc3ccc([N+](=O)[O-])cc3Cl)nc2=O)cc1F [Compound 494] |
| < 16 | NCCCNCc1ccc(-c2c[nH]c(NC(=O)Nc3ccc(Cl)cc3Cl)nc2=O)cc1F [Compound 496] |
| < 16 | NCCCNCc1ccc(-c2c[nH]c(NC(=O)Nc3cc(C(F)(F)F)ccc3Cl)nc2=O)cc1F [Compound 497] |
| > 16 | N=C(N)NCCCCCN1CCN(c2c[nH]c(NC(=O)Nc3cccc(Cl)c3F)nc2=O)CC1 [Compound 502] |
| > 16 | N=C(N)NCCCCCN1CCC(c2c[nH]c(Nc3nc4ccccc4[nH]3)nc2=O)CC1 [Compound 503] |
| > 16 | NCCCCCN1CCN(c2c[nH]c(NC(=O)Nc3cc(F)c(F)cc3F)nc2=O)CC1 [Compound 504] |
| > 16 | N=C(N)NCCCCCN1CCN(c2c[nH]c(NC(=O)Nc3cc(F)c(F)cc3F)nc2=O)CC1 [Compound 505] |
| > 16 | NCCCCN1CCC(c2c[nH]c(Nc3nc4ccccc4[nH]3)nc2=O)CC1 [Compound 509] |
| > 16 | N=C(N)NCCCCN1CCC(c2c[nH]c(Nc3nc4ccccc4[nH]3)nc2=O)CC1 [Compound 510] |
| > 16 | NCCCNCc1ccc(-c2c[nH]c(NC(=O)NCCc3ccccc3OC(F)(F)F)nc2=O)cc1F [Compound 512] |
| > 16 | NCCCCCN1CCN(c2c[nH]c(Nc3nc4ccccc4[nH]3)nc2=O)CC1 [Compound 514] |
| > 16 | N=C(N)NCCCCCN1CCN(c2c[nH]c(Nc3nc4ccccc4[nH]3)nc2=O)CC1 [Compound 515] |
| > 16 | N=C(N)NCCCN1CCCC(c2c[nH]c(NC(=O)Nc3ccccc3OC(F)(F)F)nc2=O)CC1 (stereo not shown) [Compound 517] |
| > 16 | NCCCCCN1CCN(c2c[nH]c(NC(=O)Nc3ccccc3OC(F)(F)F)nc2=O)CC1 [Compound 518] |

| MIC [µg/mL] | Structure (SMILES) |
| --- | --- |
| > 16 | NCCCCN1CCN(c2c[nH]c(NC(=O)Nc3cccc(Cl)c3F)nc2=O)CC1 [Compound 521] |
| > 16 | NCCCCN1CCN(c2c[nH]c(NC(=O)Nc3ccccc3OC(F)(F)F)nc2=O)CC1 [Compound 522] |
| > 16 | N=C(N)NCCCCN1CCCC(c2c[nH]c(NC(=O)Nc3ccccc3OC(F)(F)F)nc2=O)CC1 (stereo not shown) [Compound 525] |
| > 16 | NCCCN1CC2(CCN(c3c[nH]c(NC(=O)Nc4ccccc4OC(F)(F)F)nc3=O)C2)C1 [Compound 527] |
| > 16 | NCCCCN1CCN(c2c[nH]c(Nc3nc4ccccc4[nH]3)nc2=O)CC1 [Compound 530] |
| > 16 | NCCCCN1CCC(c2c[nH]c(NC(=O)Nc3cccc(Cl)c3F)nc2=O)CC1 [Compound 536] |
| > 16 | NCCCCN1CCC(c2c[nH]c(NC(=O)Nc3ccccc3OC(F)(F)F)nc2=O)CC1 [Compound 537] |
| < 16 | NCCCNCc1ccc(-c2c[nH]c(NC(=O)NCCCc3ccccc3OC(F)(F)F)nc2=O)cc1F [Compound 539] |
| > 16 | N=C(N)NCCCNCc1ccc(-c2c[nH]c(NC(=O)NCCCc3ccccc3OC(F)(F)F)nc2=O)cc1F [Compound 540] |
| > 16 | NCCCCCN1CCN(c2c[nH]c(Nc3nc4cc(F)c(F)cc4[nH]3)nc2=O)CC1 [Compound 541] |
| > 16 | N=C(N)NCCCCN1CCC(c2c[nH]c(NC(=O)Nc3cc(F)c(F)cc3F)nc2=O)CC1 [Compound 546] |
| > 16 | N=C(N)NCCCCN1CCC(c2c[nH]c(NC(=O)Nc3cccc(Cl)c3F)nc2=O)CC1 [Compound 547] |
| > 16 | NCCCNCc1ccc(-c2c[nH]c(NC(=O)NCCc3nc4cc(F)c(F)cc4[nH]3)nc2=O)cc1F [Compound 554] |
| > 16 | NCCCNCc1ccc(-c2c[nH]c(NC(=O)NCCc3nc4ccccc4[nH]3)nc2=O)cc1F [Compound 555] |
| > 16 | N=C(N)NCCCNCc1ccc(-c2c[nH]c(NC(=O)NCCCc3cc(F)c(F)cc3F)nc2=O)cc1F [Compound 582] |
| > 16 | N=C(N)NCCCCCN1CCC(c2c[nH]c(NC(=O)Nc3ccccc3OC(F)(F)F)nc2=O)CC1 [Compound 584] |
| > 16 | N=C(N)NCCCNCc1ccc(-c2c[nH]c(NC(=O)Nc3cc(F)c(F)cc3F)nc2=O)cn1 [Compound 585] |
| > 16 | COc1nc(Nc2nc3ccccc3o2)ncc1-c1ccc(CNCCCN)c(F)c1 [Compound 589] |
| > 16 | NCCCCNC1CCN(c2c[nH]c(NC(=O)Nc3ccccc3OC(F)(F)F)nc2=O)CC1 [Compound 599] |
